Experimental data as given in ChEMBL document CHEMBL5537113, “Discovery of 1,2-diaryl-3-oxopyrazolidin-4-carboxamides as a new class of MurA enzyme inhibitors and characterization of their antibacterial activity” (Eur J Med Chem, 2023).
Calls of active or inactive are those of the source. The calls are words filed in the database; no cut-off is given here.

Experiments:
Escherichia coli = experiment: Antibacterial activity against Escherichia coli harboring tolC deletion mutant assessed as reduction in microbial growth incubated for 16 hrs by serial dilution method; type: functional
[1] = biological target: UDP-N-acetylglucosamine 1-carboxyvinyltransferase (Escherichia coli K-12) (UniProt P0A749); experiment: Inhibition of Escherichia coli K12 His-tagged MurA expressed in Escherichia coli BL21 cells at 50 uM using UNAG as substrate pre incubated for 15 mins followed by substrate addition and measured after 15 mins by microplate reader analysis relative to control; settings: time 30.0 min
Chain of UDP-N-acetylglucosamine 1-carboxyvinyltransferase (Escherichia coli K-12) (P0A749 whole entry): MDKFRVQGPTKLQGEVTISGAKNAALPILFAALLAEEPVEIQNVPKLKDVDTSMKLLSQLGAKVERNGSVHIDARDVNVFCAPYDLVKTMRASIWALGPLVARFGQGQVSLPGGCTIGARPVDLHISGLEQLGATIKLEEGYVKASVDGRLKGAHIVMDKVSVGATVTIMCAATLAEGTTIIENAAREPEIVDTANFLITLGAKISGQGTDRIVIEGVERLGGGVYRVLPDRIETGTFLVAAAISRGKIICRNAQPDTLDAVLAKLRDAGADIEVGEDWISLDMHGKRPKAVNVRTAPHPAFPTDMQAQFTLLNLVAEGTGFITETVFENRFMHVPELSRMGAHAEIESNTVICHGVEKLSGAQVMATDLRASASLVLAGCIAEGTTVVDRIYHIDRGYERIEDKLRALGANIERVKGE

Staphylococcus aureus [2] = experiment: Antibacterial activity against Staphylococcus aureus Newman D2C NCTC 10833 assessed as reduction in microbial growth incubated for 16 hrs by serial dilution method; type: functional
[3] = biological target: UDP-N-acetylglucosamine 1-carboxyvinyltransferase (Escherichia coli K-12, UniProt P0A749); experiment: Inhibition of Escherichia coli K12 His-tagged MurA expressed in Escherichia coli BL21 cells using UNAG as substrate pre incubated for 15 mins followed by substrate addition and measured after 15 mins by microplate reader analysis
Chain of UDP-N-acetylglucosamine 1-carboxyvinyltransferase (P0A749 whole entry): as above

Staphylococcus aureus [4] = experiment: Antibacterial activity against methicillin sensitive Staphylococcus aureus NRS107 assessed as reduction in microbial growth by CLSI based broth microdilution method; type: functional
Staphylococcus aureus [5] = experiment: Antibacterial activity against methicillin resistant Staphylococcus aureus NRS119 assessed as reduction in microbial growth by CLSI based broth microdilution method; type: functional
Staphylococcus aureus [6] = experiment: Antibacterial activity against methicillin resistant Staphylococcus aureus USA300 assessed as reduction in microbial growth by CLSI based broth microdilution method; type: functional
Staphylococcus aureus [7] = experiment: Antibacterial activity against vancomycin resistant Staphylococcus aureus 10 assessed as reduction in microbial growth by CLSI based broth microdilution method; type: functional
Clostridioides difficile = experiment: Antibacterial activity against Clostridioides difficile ATCC BAA1870 assessed as reduction in microbial growth incubated for 48 hrs by broth microdilution method; type: functional

SMILES	MIC (Escherichia coli) [µM]	inhibition [1]	MIC (Staphylococcus aureus [2]) [µM]	IC50 [3] [µM]	MIC (Staphylococcus aureus [4]) [µg/mL]	MIC (Staphylococcus aureus [5]) [µg/mL]	MIC (Staphylococcus aureus [6]) [µg/mL]	MIC (Staphylococcus aureus [7]) [µg/mL]	MIC (Clostridioides difficile) [µg/mL]
O=C1SCCC1NC(=O)C1CN(c2cccc(Cl)c2)N(c2cccc(Cl)c2)C1=O (configuration not stated)	17	35%	11	–	–	–	–	–	–
CN1C(=O)C(C(=O)Nc2ncc(C#N)s2)CN1c1cccc(Cl)c1 (configuration not stated)	> 40	inactive	> 40	–	–	–	–	–	–
O=C(Nc1cncc(Cl)c1)C1CN(c2cccc(Cl)c2)N(c2cccc(Cl)c2)C1=O (configuration not stated)	> 40	18.2%	> 40	–	–	–	–	–	–
O=C(Nc1ccc2ncsc2c1)C1CN(c2cccc(Cl)c2)N(c2cccc(Cl)c2)C1=O (configuration not stated)	> 40	44.7%	> 40	–	–	–	–	–	–
O=C(NCc1ccncc1)C1CN(c2cccc(Cl)c2)N(c2cccc(Cl)c2)C1=O (configuration not stated)	> 40	inactive	> 40	–	–	–	–	–	–
O=C(Nc1cccc(-c2cn[nH]c2)c1)C1CN(c2cccc(Cl)c2)N(c2cccc(Cl)c2)C1=O (configuration not stated)	> 40	60.4%	> 40	31	–	–	–	–	–
Cc1cnc(NC(=O)C2CN(c3cccc(Cl)c3)N(c3cccc(Cl)c3)C2=O)s1 (configuration not stated)	40	59.6%	> 40	22	–	–	–	–	–
O=C(NCc1ccco1)C1CN(c2cccc(Cl)c2)N(c2cccc(Cl)c2)C1=O (configuration not stated)	> 40	34%	> 40	–	–	–	–	–	–
O=C(Nc1ccc2[nH]cnc2c1)C1CN(c2cccc(Cl)c2)N(c2cccc(Cl)c2)C1=O (configuration not stated)	18	74.2%	> 40	33.5	–	–	–	–	–
N#Cc1cnc(NC(=O)C2CN(c3ccccc3)N(c3ccccc3)C2=O)s1 (configuration not stated)	> 40	inactive	> 40	–	–	–	–	–	–
O=C(Nc1nccs1)C1CN(c2cccc(Cl)c2)N(c2cccc(Cl)c2)C1=O (configuration not stated)	> 40	17.8%	> 40	–	–	–	–	–	–
CC(=O)NC[C@H]1CN(c2ccc(N3CCOCC3)c(F)c2)C(=O)O1 [LINEZOLID]	–	–	–	–	0.5	32	1	0.5	1
O=C1SCCC1NC(=O)C1CN(c2ccccc2)N(c2ccccc2)C1=O (configuration not stated)	> 40	inactive	> 40	–	–	–	–	–	–
O=C(Nc1ccccn1)C1CN(c2cccc(Cl)c2)N(c2cccc(Cl)c2)C1=O (configuration not stated)	> 40	30.5%	> 40	–	–	–	–	–	–
